# Data as given in patent US8802597B2, “Herbicidal pyrimidines” (E I du Pont de Nemours and Company, priority 2003, dated 2014).
# Columns and labels:
# Assay in all cases: Test C pre/postemergence
# Format in all cases: in vivo
# Details in all cases: Preemergence
# [1] = tested on: cocklebur (Xanthium strumarium)
# In short: (§1)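 Pre: seeds planted, sprayed same day. Post: 1- to 4-leaf plants (2–18 cm). Formulation: non-phytotoxic solvent + surfactant. Greenhouse 12–14 d; visual % control vs untreated, 0–100.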
# [2] = tested on: common (oilseed) sunflower (Helianthus annuus)
# In short: as §1
# [3] = tested on: common ragweed (Ambrosia elatior)
# In short: as §1
# [4] = tested on: crabgrass (Digitaria sanguinalis)
# In short: as §1
# [5] = tested on: eastern black nightshade (Solanum ptycanthum)
# In short: as §1
# [6] = tested on: giant foxtail (Setaria faberii)
# In short: as §1
# kochia (Kochia scoparia) = tested on: kochia (Kochia scoparia)
# In short: as §1
# [7] = tested on: morningglory (Ipomoea coccinea)
# In short: as §1
# [8] = tested on: pigweed (Amaranthus retroflexus)
# In short: as §1
# [9] = tested on: velvetleaf (Abutilon theophrasti)
# In short: as §1
# [10] = tested on: woolly cupgrass (Eriochloa villosa)
# In short: as §1
# [11] = tested on: yellow nutsedge (Cyperus esculentus)
# In short: as §1
# [12] = 31 g ai/ha, scale 0 to 100, 0 no effect, 100 complete control
# [13] = 62 g ai/ha, scale 0 to 100, 0 no effect, 100 complete control
structure (smiles),measurement,setting,value
CCOC(=O)C(Cl)c1nc(C2CC2)nc(N)c1Br (centres unmarked) [Compound 31],"Plant response rating, Cocklebur",[1]; [12],0
same,"Plant response rating, Cocklebur",[1]; [13],60
same,"Plant response rating, Cocklebur","[1]; 125 g ai/ha, scale 0 to 100",75
same,"Plant response rating, Cocklebur","[1]; 250 g ai/ha, scale 0 to 100",85
same,"Plant response rating, Sunflower",[2]; [12],0
same,"Plant response rating, Sunflower",[2]; [13],0
same,"Plant response rating, Sunflower","[2]; 125 g ai/ha, scale 0 to 100",5
same,"Plant response rating, Sunflower","[2]; 250 g ai/ha, scale 0 to 100",70
same,"Plant response rating, Ragweed",[3]; [12],5
same,"Plant response rating, Ragweed",[3]; [13],10
same,"Plant response rating, Ragweed","[3]; 125 g ai/ha, scale 0 to 100",60
same,"Plant response rating, Ragweed","[3]; 250 g ai/ha, scale 0 to 100",60
same,"Plant response rating, Crabgrass",[4]; [12],0
same,"Plant response rating, Crabgrass",[4]; [13],0
same,"Plant response rating, Crabgrass","[4]; 125 g ai/ha, scale 0 to 100",0
same,"Plant response rating, Crabgrass","[4]; 250 g ai/ha, scale 0 to 100",0
same,"Plant response rating, Nightshade",[5]; [12],0
same,"Plant response rating, Nightshade",[5]; [13],0
same,"Plant response rating, Nightshade","[5]; 125 g ai/ha, scale 0 to 100",0
same,"Plant response rating, Foxtail, Giant",[6]; [12],0
same,"Plant response rating, Foxtail, Giant",[6]; [13],0
same,"Plant response rating, Foxtail, Giant","[6]; 125 g ai/ha, scale 0 to 100",0
same,"Plant response rating, Foxtail, Giant","[6]; 250 g ai/ha, scale 0 to 100",0
same,"Plant response rating, Kochia",kochia (Kochia scoparia); [12],0
same,"Plant response rating, Kochia",kochia (Kochia scoparia); [13],0
same,"Plant response rating, Kochia","kochia (Kochia scoparia); 125 g ai/ha, scale 0 to 100",50
same,"Plant response rating, Kochia","kochia (Kochia scoparia); 250 g ai/ha, scale 0 to 100",70
same,"Plant response rating, Morningglory",[7]; [12],0
same,"Plant response rating, Morningglory",[7]; [13],0
same,"Plant response rating, Morningglory","[7]; 125 g ai/ha, scale 0 to 100",10
same,"Plant response rating, Morningglory","[7]; 250 g ai/ha, scale 0 to 100",50
same,"Plant response rating, Pigweed",[8]; [12],10
same,"Plant response rating, Pigweed",[8]; [13],30
same,"Plant response rating, Pigweed","[8]; 125 g ai/ha, scale 0 to 100",35
same,"Plant response rating, Pigweed","[8]; 250 g ai/ha, scale 0 to 100",40
same,"Plant response rating, Velvetleaf",[9]; [12],0
same,"Plant response rating, Velvetleaf",[9]; [13],0
same,"Plant response rating, Velvetleaf","[9]; 125 g ai/ha, scale 0 to 100",0
same,"Plant response rating, Velvetleaf","[9]; 250 g ai/ha, scale 0 to 100",60
same,"Plant response rating, Cupgrass, Woolly",[10]; [12],0
same,"Plant response rating, Cupgrass, Woolly",[10]; [13],0
same,"Plant response rating, Cupgrass, Woolly","[10]; 125 g ai/ha, scale 0 to 100",0
same,"Plant response rating, Cupgrass, Woolly","[10]; 250 g ai/ha, scale 0 to 100",0
same,"Plant response rating, Nutsedge, Yellow",[11]; [12],0
same,"Plant response rating, Nutsedge, Yellow",[11]; [13],0
same,"Plant response rating, Nutsedge, Yellow","[11]; 125 g ai/ha, scale 0 to 100",0
same,"Plant response rating, Nutsedge, Yellow","[11]; 250 g ai/ha, scale 0 to 100",0
